Reference: patent publication US11667649B2, “Heteroaromatic macrocyclic ether chemotherapeutic agents” (Nuvalent, Inc., priority 2020, dated 2023)

Key:
[1] = biological target: T1, ALK L1196M/G1202R kinase domain (Homo sapiens, UniProt Q9UM73, G1202R/L1196M); assay: Biochemical kinase assay, ALK L1196M/G1202R; details: 2 mM ATP substrate solution, read-out: Ki^app ALK-L1196M-G1202R
T1 construct: TRKA-wt (1 nM, BPS Bio, 40280) kinase domains in buffer; purchased SignalChem A19-12NG
Method in brief: (§1)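 Apparent Ki values come from fitting initial reaction rates against inhibitor concentration to the Morrison equation. Rates were taken from the linear phase of fluorogenic substrate phosphorylation (AQT0101 for ALK and ROS1, AQT0104 for TRKA; 26 μM in substrate solution with 2 mM ATP), monitored at 485 nm over 120 min at 30° C.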

ROS1-wt kinase domain = biological target: T2, ROS1-wt kinase domain (Homo sapiens, UniProt P08922); assay: Biochemical kinase assay, ROS1-wt; details: 2 mM ATP substrate solution, read-out: Ki^app ROS1-wt
T2 construct: TRKA-wt (1 nM, BPS Bio, 40280) kinase domains in buffer; purchased Carna 08-163
Method in brief: as §1

TRKA-wt kinase domain = biological target: T3, TRKA-wt kinase domain (Homo sapiens, UniProt P04629); assay: Biochemical kinase assay, TRKA-wt; details: 2 mM ATP substrate solution, read-out: Ki^app TRKA-wt
T3 construct: TRKA-wt (1 nM, BPS Bio, 40280) kinase domains in buffer; purchased BPS Bio 40280
Method in brief: as §1

ALK-wt kinase domain = biological target: T4, ALK-wt kinase domain (Homo sapiens, UniProt Q9UM73); assay: Biochemical kinase assay, ALK-wt; details: 2 mM ATP substrate solution, read-out: Ki^app ALK-wt
T4 construct: TRKA-wt (1 nM, BPS Bio, 40280) kinase domains in buffer; purchased Carna 08-518
Method in brief: as §1

[2] = biological target: T5, ROS1-G2032R kinase domain (Homo sapiens, UniProt P08922, G2032R); assay: Biochemical kinase assay, ROS1-G2032R; details: 2 mM ATP substrate solution, read-out: Ki^app ROS1-G2032R
T5 construct: TRKA-wt (1 nM, BPS Bio, 40280) kinase domains in buffer; purchased SignalChem R14-12BG
Method in brief: as §1

| SMILES | Ki [1] | Ki (ROS1-wt kinase domain) | Ki (TRKA-wt kinase domain) | Ki (ALK-wt kinase domain) | Ki [2] |
| --- | --- | --- | --- | --- | --- |
| CC1Oc2cc(cnc2N)-c2c(n[nH]c2C#N)Cc2cnn(C)c2-c2ccc(F)cc21 (stereo not shown) [Compound 168] | < 0.05 µM | < 0.05 µM | > 0.5 µM | < 0.05 µM | < 0.05 µM |
| C[C@H]1Oc2cc(cnc2N)-c2c(nn(C)c2C2CCC2)Cc2ccnn2-c2ccc(F)cc21 [Compound 174] | < 0.05 µM | < 0.05 µM | 0.05 to 0.5 µM | < 0.05 µM | < 0.05 µM |
| C[C@H]1Oc2cc(cnc2N)-c2c(C#N)nn(C)c2Cc2cc(C(F)(F)F)nn2-c2ccc(F)cc21 [Compound 104] | < 0.05 µM | < 0.05 µM | > 0.5 µM | < 0.05 µM | < 0.05 µM |
| CCn1ncc2c1-c1cnc(N)c(c1)OC(C)c1cc(F)ccc1-c1ncncc1C2 (stereo not shown) [Compound 42] | < 0.05 µM | < 0.05 µM | 0.05 to 0.5 µM | < 0.05 µM | < 0.05 µM |
| CCc1nn(C)c2c1-c1cnc(N)c(c1)OCc1cc(F)ccc1-c1nn(C)cc1C2 [Compound 176] | < 0.05 µM | < 0.05 µM | > 0.5 µM | < 0.05 µM | 0.05 to 0.5 µM |
| C[C@H]1Oc2cc(cnc2N)-c2c(c(Cl)nn2CC2CC2)Cc2cn(C)nc2-c2ccc(F)cc21 [Compound 133] | < 0.05 µM | < 0.05 µM | > 0.5 µM | < 0.05 µM | 0.05 to 0.5 µM |
| CCn1ncc2c1-c1cnc(N)c(c1)O[C@H](C)c1cc(F)ccc1-n1nccc1C2 [Compound 33] | < 0.05 µM | < 0.05 µM | < 0.05 µM | < 0.05 µM | < 0.05 µM |
| CCn1ncc2c1-c1cnc(N)c(c1)OCc1cc(F)ccc1-c1nccn1C2 [Compound 34] | < 0.05 µM | < 0.05 µM | > 0.5 µM | < 0.05 µM | 0.05 to 0.5 µM |
| C[C@H]1Oc2cc(cnc2N)-c2c(C#N)nn(C)c2Cc2cc(C(F)F)nn2-c2ccc(F)cc21 [Compound 132] | < 0.05 µM | < 0.05 µM | 0.05 to 0.5 µM | < 0.05 µM | < 0.05 µM |
| C[C@H]1Oc2cc(cnc2N)-c2c(cnn2CC2CC2)Cc2cc(C(F)F)nn2-c2ccc(F)cc21 [Compound 130] | < 0.05 µM | < 0.05 µM | 0.05 to 0.5 µM | < 0.05 µM | < 0.05 µM |
| CC1Oc2cc(cnc2N)-c2c(cnn2C)Cc2cnn(C)c2-c2ccc(F)cc21 (stereo not shown) [Compound 2] | 0.05 to 0.5 µM | < 0.05 µM | 0.05 to 0.5 µM | < 0.05 µM | < 0.05 µM |
| C[C@H]1Oc2cc(cnc2N)-c2c(cnn2CC(F)(F)F)Cc2cn(C)nc2-c2ccc(F)cc21 [Compound 27] | < 0.05 µM | < 0.05 µM | > 0.5 µM | < 0.05 µM | < 0.05 µM |
| C[C@H]1Oc2cc(cnc2N)-c2c(nnn2CC2CC2)Cc2cn(C)nc2-c2ccc(F)cc21 [Compound 29] | < 0.05 µM | < 0.05 µM | 0.05 to 0.5 µM | < 0.05 µM | < 0.05 µM |
| CC1Oc2cc(cnc2N)-c2c(cnn2C(F)F)Cn2ccnc2-c2ccc(F)cc21 (stereo not shown) [Compound 44] | 0.05 to 0.5 µM | < 0.05 µM | 0.05 to 0.5 µM | < 0.05 µM | < 0.05 µM |
| CCn1ncc2c1-c1cnc(N)c(c1)O[C@H](C)c1cc(F)ccc1-n1ncc(C#N)c1C2 [Compound 47] | 0.05 to 0.5 µM | < 0.05 µM | 0.05 to 0.5 µM | < 0.05 µM | < 0.05 µM |
| CCn1ncc2c1-c1cnc(N)c(c1)O[C@H](C)c1cc(F)ccc1-n1nc(C(F)F)cc1C2 [Compound 102] | < 0.05 µM | < 0.05 µM | < 0.05 µM | < 0.05 µM | < 0.05 µM |
| CCn1ncc2c1-c1cnc(N)c(c1)O[C@H](C)c1cc(F)ccc1-c1nn(C)c(OC)c1C2 [Compound 157] | < 0.05 µM | < 0.05 µM | < 0.05 µM | < 0.05 µM | < 0.05 µM |
| Nc1ncc2cc1OCc1cc(F)ccc1-n1nc(Cl)cc1Cc1nnn(CC3CC3)c1-2 [Compound 110] | < 0.05 µM | < 0.05 µM | > 0.5 µM | < 0.05 µM | < 0.05 µM |
| CCn1nc(C(C)C)c2c1-c1cnc(N)c(c1)O[C@H](C)c1cc(F)ccc1-c1nn(C)cc1C2 [Compound 153] | < 0.05 µM | < 0.05 µM | < 0.05 µM | < 0.05 µM | < 0.05 µM |

| SMILES | Ki [1] | Ki (ROS1-wt kinase domain) | Ki (TRKA-wt kinase domain) | Ki (ALK-wt kinase domain) | Ki [2] |
| --- | --- | --- | --- | --- | --- |
| C[C@H]1Oc2cc(cnc2N)-c2c(C3CCC3)noc2Cc2cn(C)nc2-c2ccc(F)cc21 [Compound 26] | < 0.05 µM | < 0.05 µM | 0.05 to 0.5 µM | < 0.05 µM | < 0.05 µM |
| C[C@H]1Oc2cc(cnc2N)-c2c(C#N)ncn2Cc2ccnn2-c2ccc(F)cc21 [Compound 58] | < 0.05 µM | < 0.05 µM | > 0.5 µM | < 0.05 µM | < 0.05 µM |
| CCn1ncc2c1-c1cnc(N)c(c1)O[C@H](C)c1cc(F)ccc1-c1nn(C(C)(C)C)cc1C2 [Compound 150] | < 0.05 µM | < 0.05 µM | 0.05 to 0.5 µM | < 0.05 µM | < 0.05 µM |
| CCc1noc2c1-c1cnc(N)c(c1)O[C@H](C)c1cc(F)ccc1-c1nncn1C2 [Compound 120] | 0.05 to 0.5 µM | < 0.05 µM | 0.05 to 0.5 µM | < 0.05 µM | 0.05 to 0.5 µM |
| CCn1ncc2c1-c1cnc(N)c(c1)OC(C)c1cc(F)ccc1-c1ccncc1C2 (stereo not shown) [Compound 36] | < 0.05 µM | < 0.05 µM | 0.05 to 0.5 µM | < 0.05 µM | < 0.05 µM |
| CCn1ncc2c1-c1cnc(N)c(c1)O[C@H](C)c1cc(F)ccc1-c1nn(C)c(C)c1C2 [Compound 87] | < 0.05 µM | < 0.05 µM | < 0.05 µM | < 0.05 µM | < 0.05 µM |
| CCn1ncc2c1-c1cnc(N)c(c1)O[C@H](C)c1cc(F)ccc1-n1nc(Br)cc1C2 [Compound 80] | < 0.05 µM | < 0.05 µM | < 0.05 µM | < 0.05 µM | < 0.05 µM |
| C[C@H]1Oc2cc(cnc2N)-c2c(c(C#N)nn2CC2CC2)Cc2cccnc2-c2ccc(F)cc21 [Compound 123] | < 0.05 µM | < 0.05 µM | > 0.5 µM | < 0.05 µM | < 0.05 µM |
| CC1Oc2cc(cnc2N)-c2c(cnn2C2CCC2)Cn2ccnc2-c2ccc(F)cc21 (stereo not shown) [Compound 37] | < 0.05 µM | < 0.05 µM | 0.05 to 0.5 µM | < 0.05 µM | < 0.05 µM |
| CCn1nc(OC)c2c1-c1cnc(N)c(c1)O[C@H](C)c1cc(F)ccc1-c1nn(C)cc1C2 [Compound 181] | < 0.05 µM | < 0.05 µM | 0.05 to 0.5 µM | < 0.05 µM | < 0.05 µM |
| C[C@H]1Oc2cc(cnc2N)-c2c(C#N)cnn2Cc2cccnc2-c2ccc(F)cc21 [Compound 14] | < 0.05 µM | < 0.05 µM | 0.05 to 0.5 µM | < 0.05 µM | < 0.05 µM |
| CCn1ncc2c1-c1cnc(N)c(c1)O[C@H](C)c1cc(F)ccc1-c1nccn1C2 [Compound 31] | < 0.05 µM | < 0.05 µM | < 0.05 µM | < 0.05 µM | < 0.05 µM |
| CCn1nnc2c1-c1cnc(N)c(c1)O[C@H](C)c1cc(F)ccc1-c1nc(C)sc1C2 [Compound 78] | < 0.05 µM | < 0.05 µM | 0.05 to 0.5 µM | < 0.05 µM | < 0.05 µM |
| C[C@H]1Oc2cc(cnc2N)-c2c(C#N)nn(C)c2Cc2cccnc2-c2ccc(F)cc21 [Compound 100] | < 0.05 µM | < 0.05 µM | 0.05 to 0.5 µM | < 0.05 µM | < 0.05 µM |
| CC(C)Cn1ncc2c1-c1cnc(N)c(c1)O[C@H](C)c1cc(F)ccc1-c1nn(C)cc1C2 [Compound 154] | < 0.05 µM | < 0.05 µM | > 0.5 µM | < 0.05 µM | < 0.05 µM |
| CCc1nnn2c1-c1cnc(N)c(c1)O[C@H](C)c1cc(F)ccc1-c1ncc(F)cc1C2 [Compound 16] | < 0.05 µM | < 0.05 µM | 0.05 to 0.5 µM | < 0.05 µM | < 0.05 µM |
| C[C@H]1Oc2cc(cnc2N)-c2c(nn(C)c2C#N)Cc2ccnn2-c2ccc(F)cc21 [Compound 169] | < 0.05 µM | < 0.05 µM | < 0.05 µM | < 0.05 µM | < 0.05 µM |
| Cc1nn(CC(F)F)c2c1Cc1cn(C)nc1-c1ccc(F)cc1[C@@H](C)Oc1cc-2cnc1N [Compound 79] | < 0.05 µM | < 0.05 µM | > 0.5 µM | < 0.05 µM | < 0.05 µM |
| C[C@H]1Oc2cc(cnc2N)-c2c(C#N)ncn2Cc2scnc2-c2ccc(F)cc21 [Compound 64] | < 0.05 µM | < 0.05 µM | > 0.5 µM | < 0.05 µM | < 0.05 µM |
